Assay results published in paper PMC9817077, “Simple, Reliable Protocol for High-Yield Solubilization of Seedless Amyloid-β Monomer” (ACS Chemical Neuroscience, 2022).

Experiments:
[1] = Re-freezing of thawed aliquots (AF4-MALS and ThT); format: physicochemical; conditions: 50 mM NaOH, 5 min sonication; re-frozen in liquid N2, on pre-cooled metal or in a rack at −80 °C
Protocol: 174 S6 Re-freezing of Aβ solubilized in 50 mM NaOH
177 used on multiple separate occasions. Aliquots that had been prepared by sonication for 5 min 178 in 50 mM NaOH were thawed and then re-frozen according to one of three methods: rapid 179 freezing by immersion in liquid N2 (freezing time < 1 s); freezing by placing the Eppendorf 180 tube in contact with pre-cooled metal at -80 °C (< 1 min); and simply placing the sample 181 in a rack in the -80 °C freezer (< 5 min). While the former was obviously preferable, the 182 other two methods were tested due to their convenience, and to ascertain whether improper […]
185 indistinguishable the results obtained with ﬁrst-use aliquots (Figures 3-4 in the main text), […]
Therefore, Aβ(1-42) aliquots
187 […] 188 convenient when performing a range of experiments requiring diﬀerent quantities of peptide.
190 temperature is -80 °C, use of liquid N2 is still recommended whenever possible.
The corresponding LS 90o signal. (c) The normalized ThT self-assembly kinetics. All panels use the same color scheme, which encodes the re-freezing method: red, placement in a rack in the -80 °C freezer; green, freezing by placement in contact with pre-cooled metal at -80 °C; blue, rapid freezing by immersion in liquid N2.
(1 picture or pasted object on this page, not shown here)

[2] = Thioflavin T (ThT) self-assembly (fibrillization) kinetics assay; format: physicochemical
Protocol: Peptide was prepared using either of the aforementioned protocols, with or without HFIP pretreatment, and self-assembly was initiated by rapid dilution into the fibrillization buffer to a final concentration of 1–10 μM peptide. […] The success of this strategy was confirmed empirically.
Self-assembly experiments were carried out in a 20 mM sodium phosphate buffer (pH 8) containing 200 μM EDTA, 1 mM NaN3, and 20 μM ThT. […] Correction can be carried out before or after this addition. However, if correction is carried out after the peptide has been added to the buffer stock, the peptide will already have begun to aggregate so that the delay could influence the results. In addition, adding acid to lower the pH would modify the buffer composition and increase the ionic strength from its intended value. As a better alternative, one can correct the pH in advance, by preparing a buffer stock that is more acidic than the final intended solution but reliably reaches the correct pH following the addition of a known quantity of NaOH and Aβ(1-42). Note that this correction is only necessary when preparing Aβ(1-42) solutions by direct addition of the peptide from NaOH stock and is not necessary when exchanging the peptide into the correct buffer by SEC.
The ratio of NaH2PO4 and Na2HPO4 in the 5× buffer stock was chosen to give the correct pH when mixed with the NaOH and other buffer constituents, and was initially based on calculation and subsequently optimized experimentally. The final intended quantities of H2PO4^– and HPO4^2– can be calculated from the Henderson-Hasselbalch eq.[97] Given an acid dissociation constant K2 ≈ 6.94 at the ionic strength of the self-assembly buffer,[98] one expects the final self-assembly buffer to contain approximately 1.6 mM H2PO4^– and 18.4 mM HPO4^2–. When NaOH is added to phosphate buffer, most of the hydroxide is consumed in the reaction OH^– + H2PO4^– → H2O + HPO4^2–. Therefore, if 10 mM NaOH is incorporated into the final buffer at 10% of the final volume, 1 mM H2PO4^– will be converted to 1 mM HPO4^2–. Thus, to achieve the correct final ratio of phosphate ions, the 5× buffer stock will need to contain 5 × (1.6 + 1.0) mM = 13 mM NaH2PO4 and 5 × (18.4 – 1.0) mM = 87 mM Na2HPO4. Similarly, if 50 mM NaOH is used, the 5× buffer stock will need to contain 5 × (1.6 + 5.0) mM = 33 mM NaH2PO4 and 5 × (18.4 – 5.0) mM = 67 mM Na2HPO4. In practice, these calculations were used to inform preparation of a test buffer stock, which was then used to prepare a test self-assembly buffer using the ratios described above. If the pH of this test solution was outside the 7.98–8.02 range, a new test buffer stock was prepared with a modified composition. […]

Substance: Aβ(1-42): Ultrapure recombinant Aβ(1-42) purchased from rPeptide, lyophilized from HFIP; disordered amyloid-forming peptide
- AF4-MALS elugrams and ThT kinetics of re-frozen peptide against first-use aliquots [1]: indistinguishable
- initial ThT fluorescence ([2]; 50 mM NaOH samples, 4 μM peptide, 20 mM sodium phosphate pH 8, 37 °C, mean): 2.2 % of final fluorescence
- fibrillization half-time τhalf ([2]; commercial recombinant samples solubilized in 50 mM NaOH, 20 mM sodium phosphate pH 8, 37 °C, concentration not given): 7700 ± 380 s
- scaling exponent γ ([2]; commercial recombinant, 5 min sonication in 50 mM NaOH (sample 50-5-N-13), fit of mean half-times 1.5–4.0 μM, 20 mM sodium phosphate pH 8, 37 °C): −1.32
- scaling exponent γ (slope of half-time vs Aβ(1-42) concentration, double-logarithmic) ([2]; re-solubilized in 10 mM NaOH with or without HFIP pretreatment, 1–5 μM peptide, 20 mM sodium phosphate pH 8.0, 200 μM EDTA, 1 mM NaN3, 20 μM ThT, 37 °C, average, SD 0.24 across 9 peptide samples): −1.04
